# Measured values from article PMC6220272, “Scaffold-Hopping from Synthetic Drugs by Holistic Molecular Representation” (Scientific Reports, 2018).
# Legend:
# Format in all cases: cell-based
# [1] = biological target: T1, human RXRα ligand binding domain (Gal4 hybrid receptor) (Homo sapiens, UniProt P19793); assay: Gal4 hybrid reporter gene assay RXRα; conditions: HEK293T cells, n ≥ 4, read-out: RXRα EC50 ± SEM
# T1 construct: expressed in transfected cells; host or cells: HEK293T
# T1 sequence (P19793 227-458 limits assumed): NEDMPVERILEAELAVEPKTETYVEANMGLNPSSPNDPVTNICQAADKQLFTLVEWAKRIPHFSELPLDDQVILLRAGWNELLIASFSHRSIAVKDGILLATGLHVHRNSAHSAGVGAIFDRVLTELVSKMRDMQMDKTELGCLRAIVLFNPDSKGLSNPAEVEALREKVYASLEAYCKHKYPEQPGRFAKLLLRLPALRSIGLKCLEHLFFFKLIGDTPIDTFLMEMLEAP
# Method: (§1) The 20 top-ranked synthetic compounds were selected and tested in vitro for their modulatory activity on RXR (Supplementary Table 1). Compounds were tested in specific hybrid reporter gene assays for RXRα, RXRβ and RXRγ modulation[39]–[41]. These assays rely on a constitutively expressed hybrid receptor composed of the respective human RXR ligand binding domain and the DNA binding domain of the Gal4 receptor from yeast. A Gal4 responsive firefly luciferase was used as reporter gene and constitutively expressed renilla luciferase served as internal control for transfection efficiency and test compound toxicity. All selected compounds were tested at 50 µM concentration on RXRα and for active compounds (Supplementary Fig. 1), dose response curves were recorded on all three RXR subtypes.
# (§2) The Gal4 hybrid reporter gene assays were conducted as reported previously[39]–[41]. pFA-CMV-based constructs comprising the ligand binding domain of the human nuclear receptor in question were used as expression plasmids for the chimera receptors. pFR-Luc (Stratagene) served as reporter plasmid and pRL-SV40 (Promega) for normalization of transfection efficiency and cell growth. The assays were conducted in 96-well format in HEK293T cells that were cultured as described previously[39]–[41]. Transient transfection was carried out using Lipofectamine LTX reagent (Invitrogen) according to the manufacturer’s protocol. After transfection and incubation with test compounds (12–14 h), cells were assayed for luciferase activity using Dual-Glo™ Luciferase Assay System (Promega) according to the manufacturer’s protocol. Luminescence was measured with an Infinite M200 luminometer (Tecan Deutschland GmbH). All hybrid assays were validated with reference agonists (PPARα: GW7647; PPARγ: pioglitazone; PPARδ: L165,041; LXRα/β: T0901317; FXR: GW4064; RXRs: bexarotene; RARs: tretinoin; VDR: calcitriol; CAR: CITCO; PXR: SR12813) which yielded EC50 values in agreement with literature. The assays were conducted in duplicates with at least two independent repeats and for active compounds repeated without hybrid receptor coding DNA for every test compound at the highest tested concentration to exclude unspecific effects.
# (§3) Supplementary Figure 2. Dose-response curves for RXRα activation. Compounds were tested in specific hybrid reporter gene assays for RXRα, RXRβ and RXRγ modulation.^1–3 These assays rely on a constitutively expressed hybrid receptor composed of the respective human RXR ligand binding domain and the DNA binding domain of the Gal4 receptor from yeast. A Gal4 responsive firefly luciferase was used as reporter gene and constitutively expressed renilla luciferase served as internal control for transfection efficiency and test compound toxicity. […]
# [2] = biological target: T2, human RXRβ ligand binding domain (Gal4 hybrid receptor) (Homo sapiens, UniProt P28702); assay: Gal4 hybrid reporter gene assay RXRβ; conditions: HEK293T cells, n ≥ 4, read-out: RXRβ EC50 ± SEM
# T2 construct: expressed in transfected cells; host or cells: HEK293T
# T2 sequence (P28702 296-529 limits assumed): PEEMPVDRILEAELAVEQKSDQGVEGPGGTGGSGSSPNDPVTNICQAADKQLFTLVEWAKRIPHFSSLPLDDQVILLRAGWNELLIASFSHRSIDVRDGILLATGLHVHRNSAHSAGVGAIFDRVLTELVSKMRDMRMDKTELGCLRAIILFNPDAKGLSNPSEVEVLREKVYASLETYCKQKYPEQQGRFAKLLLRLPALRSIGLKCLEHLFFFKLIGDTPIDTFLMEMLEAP
# Method: as §1, §2, §3
# [3] = biological target: T3, human RXRγ ligand binding domain (Gal4 hybrid receptor) (Homo sapiens, UniProt P48443); assay: Gal4 hybrid reporter gene assay RXRγ; conditions: HEK293T cells, n ≥ 4, read-out: RXRγ EC50 ± SEM
# T3 construct: expressed in transfected cells; host or cells: HEK293T
# T3 sequence (P48443 231-459 limits assumed): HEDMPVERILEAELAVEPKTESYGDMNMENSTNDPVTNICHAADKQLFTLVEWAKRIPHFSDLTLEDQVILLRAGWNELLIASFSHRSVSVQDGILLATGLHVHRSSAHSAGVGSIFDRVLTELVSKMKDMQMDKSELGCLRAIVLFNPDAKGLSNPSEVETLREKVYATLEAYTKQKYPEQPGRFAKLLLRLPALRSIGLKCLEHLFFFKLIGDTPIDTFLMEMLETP
# Method: as §1, §2, §3
Compound,EC50 [1] [µM],EC50 [2] [µM],EC50 [3] [µM]
Cc1ccc(NC2=NC(=O)/C(=C/c3ccc(O)cc3)S2)cc1C [Compound 5],17 ± 1,14.7 ± 0.8,15 ± 0.6
CC(NC(=O)c1cccc(OCc2ccccc2)c1)c1ccccc1 (stereo not drawn) [Compound 6],16.5 ± 0.6,16.6 ± 0.2,16 ± 4
CC/C(=N/NC(=S)Nc1ccc(Cl)cc1Cl)c1ccc(O)cc1 [Compound 8],23.7 ± 0.7,25.6 ± 0.4,32 ± 3
